# Test results published in US4680382A, “Analogues of actinomycin D” (priority 1986, dated 1987).
# *1 amine or outer side, *2 acyl side, *3 side chain or, on linkers, in order; H or OH if unused. Where a SMILES comes first, the peptide text is derived from it. Bridges are numbered along the chain shown (N, C = ends). Roman numbers before positions name the chains, in order. [ ]: non-standard residue; d: D form. Actinocin(9to1) = Cc1c2oc3c(C)ccc(C(=O)[*:1])c3nc-2c(C(=O)[*:2])c(N)c1=O; NMeV = CN[C@H](C(=O)O)C(C)C; Sar = CNCC(=O)O
# Assays:
# calf-thymus DNA = assay: Equilibrium binding to calf-thymus DNA, Scatchard plots of binding isotherms (spectrophotometric); conditions: Scatchard plot
# Experimental: The "reverse" analogues bind to calf-thymus DNA, but the spectrophotometrically determined binding (Kapp and Bapp, equilibrium binding values) constants are found to be lower than those of AMD. The binding is also measured by thermal denaturation of DNA.
# The equilibrium binding constants (Kapp and Bapp) of the "reverse" methyl 7a and the "reverse" phenyl 8a were determined from the Scatchard plots of binding isotherms; the Scatchard plots are produced according to the previously described methods using calf-thymus DNA [Sengupta et al, Biochem. Biophys. Acta 521, 89 (1978)]. The Kapp values are 2.5×10^6 and 2.3×10^6 M^-1, respectively; corresponding Bapp values are 0.038 and 0.036. […] But, these "reverse" analogues associate with DNA less strongly; their frequency of binding is also lower compared to that of AMD. However, the "reverse" analogues fail to cause any measurable change in the ratio of the intrinsic viscosity (γ) of DNA with the increasing ratios of [ligand]/DNA base pair (r), even when low molecular weight DNAs (0.5×10^5 to 1.0×10^5) were employed.
# [1] = test system: CCRF-CEM human lymphoblastic leukemic cells; assay: In vitro cytotoxicity against CCRF-CEM cells; format: cell-based; conditions: 48 hr
# Experimental: ^a Human lymphoblastic leukemic cells.
# The analogues were tested for their cytotoxicity against tumor cells (time, 48 hr). […] This may be associated with the initial microsomal transformation of the "reverse" analogues to "symmetrical" analogue and/or other alternate bioactive forms (e.g., free-radicals, O2^-), followed by deactivation via formation of conjugates and facile elimination of these from the host. The "reverse" analogues show reduced toxicity in vivo and also the tritiated "reverse" 7a is metabolized in vitro.
# [2] = test system: P388 lymphocytic leukemia; assay: In vivo antitumor activity against P388 leukemia; parameters: species or system BDF1 mice; conditions: for surv (surviving mice/total mice at 60 days) / % ILS / MST (range): P388, at optimal dose; for % ILS: 100(T/C - 1); for MST (range): control 11.0 (9-12); for optimal dose: P388, ip, days 1, 5 and 9, optimal nontoxic dose
# Experimental: The analogues were tested for their antitumor activities in P388 lymphocytic leukemia in male BDF1 mice. The tumor was implanted intraperitoneally (ip) with 10^6 cells. The drugs were also administered ip once daily on days 1, 5 and 9, beginning 1 day after tumor transplantation. Analogues were tested over a range of doses, but only the optimal nontoxic doses are listed.
# ^a 10^6 P388 cells implanted ip on day 0 into groups of eight
# BDF1 male mice. Drugs administered ip. MST (range), median survival
# time in days (range of individual animal deaths); % ILS, percent increase
# in life span, calculated 100(T/C - 1), where T and C are median survival
# times of treated and control animals; surv, number of surviving mice/tota
# rat hepatic microsomes = assay: Stimulation of adrenochrome formation (superoxide generation) in rat hepatic microsomal incubations; conditions: for adrenochrome formation: 480 nm, 37° C., no more than 100 μM drug, basal 2.11 ± 0.11; for adrenochrome formation / percentage stimulation of adrenochrome formation over basal rate: no SOD; for adrenochrome formation in presence of SOD: SOD (superoxide dismutase) 5 μg/mL added
# [3] = Metabolism of tritiated drugs by rat liver microsomes with NADPH-generating system; format: in vitro ADME; conditions: for Percent isolated: unconverted: 37° C.
# Experimental: A method of using tumor cell sonicates was developed to study the metabolism of the analogues of AMD. By use of sonicated cells, the dilution effects that would occur if flasks of cultured cells were used are avoided. Although the cells are disrupted by this method, their enzyme systems appear to remain active. Large numbers of tumor cells (P388 murine leukemia) were sonicated in Earle's balanced salt solution (EBSS) and were incubated with tritiated AMD and its analogues 7a and 9a (Table II) for 16 hr. In another experiment, the analogues were treated with rat hepatic microsomes at 37° C. for 6 hr in the presence of a NADPH-generating system. The metabolic products were isolated and identified with the following results (Table II). […] In the microsomes, the major metabolites were in unconjugated forms; in the tumor cell homogenates, the major identified metabolites were glucuronide and sulfate conjugated forms. It should be pointed out that in these metabolic experiments, the identification of these glucuronide and/or sulfate conjugates was made only on the basis of the disappearance of the peaks from the HPLC chromatograms upon treatment with deconjugating enzymes glucarase.
# The incubation mixture consisted of 500 μg of microsomal protein 1.6 mM NADP^+, 16 mM glucose 6-phosphate, 10.1 U of glucose-6-phosphate dehydrogenase, 12 mM MgCl2, 10 mM sodium phosphate-potassium phosphate (pH 7.4) and 0.4-0.8 mM of tritiated drugs (including AMD) in a final volume of 5.0 mL. The mixtures were incubated at 37° C. for 6 hr, after which the reaction was stopped by chilling at 0° C. The chilled mixtures were filtered by centrifugation in tubes containing centriflow membrane cones (Amicon, 1053, molecular weight cut-off 25000). The filtrates were adjusted to pH 5.0 before extraction with water-saturated ethyl acetate (step A).
# Equal aliquots of the aqueous layer (step A) were treated either with equal volumes of glucarase (5 mg/mL) in 0.05M acetate buffer, pH 5.0, overnight at 37° C. under nitrogen in a shaking water bath or with buffer alone (step B). The aqueous fractions from step B were mixed with an extract of the Amicon cone-retained material. The metabolites at each step were separated by HPLC (Table II). For extraction of the high molecular weight protein conjugates and other tissue-associated materials, the cones were soaked in 0.1N NaOH solution overnight at 0° C. and were processed as in the preceding section before gel filtration. A Sephacryl S-200 superfine column, 1.0× 60 cm, was made in 6M guanidine hydrochloride, pH 5.0, and the lyophilized material in minimum water, pH 7.0, was added to the top of the column and eluted overnight with 6M guanidine hydrochloride, pH 5.0, at a flow rate of 2 cm/hr. A 2% solution of blue dextran 2000 (100 μL, Pharmacia) was added to the column for calibration. Fractions were collected, and the distribution of the material in the fractions was determined by liquid scintillation counting. […] For assay of metabolites, a Varian Moden 5020 gradient liquid chromatograph equipped with a CD-111L chromatography data system was used.
compound,measurement,setting,value
"Cc1c2oc3c(C)c(O)c(N)c(C(=O)NC4C(=O)NC(C(C)C)C(=O)N5CCCC5C(=O)N(C)CC(=O)N(C)C(C(C)C)C(=O)OC4C)c3nc-2c(C(=O)NC2C(=O)NC(C(C)C)C(=O)N3CCCC3C(=O)N(C)CC(=O)N(C)C(C(C)C)C(=O)OC2C)c(N)c1=O (stereo not drawn) [4a, 7-Hydroxy-8-amino-actinomycin D]",Bapp (equilibrium binding value),calf-thymus DNA,1.3
same,Kapp (equilibrium binding constant),calf-thymus DNA,6.3e+07 M⁻¹
same,in vitro (CCRF-CEM) ID50,[1],30 nM
same,surv (surviving mice/total mice at 60 days),[2],4/8
same,% ILS,[2],382%
same,MST (range),[2],52.0 (48-55) days
same,optimal dose,[2],600.0 μg/kg per inj
same,adrenochrome formation,rat hepatic microsomes,19.3 ± 1.04 nmol min^-1 (mg of protein)^-1
same,adrenochrome formation in presence of SOD,rat hepatic microsomes,inhibited
same,percentage stimulation of adrenochrome formation over basal rate,rat hepatic microsomes,815%
"Cc1nc2c(C(=O)NC3C(=O)NC(C(C)C)C(=O)N4CCCC4C(=O)N(C)CC(=O)N(C)C(C(C)C)C(=O)OC3C)c3nc4c(C(=O)NC5C(=O)NC(C(C)C)C(=O)N6CCCC6C(=O)N(C)CC(=O)N(C)C(C(C)C)C(=O)OC5C)c(N)c(=O)c(C)c-4oc3c(C)c2o1 [7a, 7-Amino-2,9,11-trimethyl-8H-8-oxooxazolo [4,5-b]phenoxazine 4,6-bis[carbonyl-L-threonyl-D-valyl-L-prolylsarcosyl-L-N-methylvaline-(threonine hydroxyl)] lactone]",Bapp (equilibrium binding value),calf-thymus DNA,0.038
same,Kapp (equilibrium binding constant),calf-thymus DNA,2.5e+06 M⁻¹
same,"Percent isolated: ""tissue"" bound","[3]; rat liver microsomes (M), 6 hr",3.7%
same,Percent isolated: protein conjugates,"[3]; rat liver microsomes (M), 6 hr",3.5%
same,Percent isolated: unidentified metabolite,"[3]; rat liver microsomes (M), 6 hr",8.5%
same,Percent metabolite isolated: 4a glucuronide and/or sulfate,"[3]; rat liver microsomes (M), 6 hr",nil
same,"Percent metabolite isolated: ""symmetrical"" AMD (4a)","[3]; rat liver microsomes (M), 6 hr",62.5%
same,Percent isolated: unconverted,"[3]; rat liver microsomes (M), 6 hr",21%
same,in vitro (CCRF-CEM) ID50,[1],110 nM
same,surv (surviving mice/total mice at 60 days),[2],3/8
same,% ILS,[2],277%
same,MST (range),[2],42.5 (39-43) days
same,optimal dose,[2],450.0 μg/kg per inj
same,adrenochrome formation,rat hepatic microsomes,6.04 ± 0.19 nmol min^-1 (mg of protein)^-1
same,adrenochrome formation in presence of SOD,rat hepatic microsomes,inhibited
same,percentage stimulation of adrenochrome formation over basal rate,rat hepatic microsomes,186%
Cc1nc2c(C(=O)NC3C(=O)NC(C(C)C)C(=O)N4CCCC4C(=O)N(C)CC(=O)N(C)C(C(C)C)C(=O)OC3C)c3nc4c(C(=O)NC5C(=O)NC(C(C)C)C(=O)N6CCCC6C(=O)N(C)CC(=O)N(C)C(C(C)C)C(=O)OC5C)cc(=O)c(C)c-4oc3c(C)c2o1 (stereo not drawn) [9a],"Percent isolated: ""tissue"" bound","[3]; rat liver microsomes (M), 6 hr",5.5%
same,Percent isolated: protein conjugates,"[3]; rat liver microsomes (M), 6 hr",9.5%
same,Percent isolated: unidentified metabolite,"[3]; rat liver microsomes (M), 6 hr",6%
same,Percent metabolite isolated: 2a glucuronide and/or sulfate,"[3]; rat liver microsomes (M), 6 hr",nil
same,Percent metabolite isolated: 7-hydroxy-AMD (2a),"[3]; rat liver microsomes (M), 6 hr",40.5%
same,Percent isolated: unconverted,"[3]; rat liver microsomes (M), 6 hr",38.5%
same,surv (surviving mice/total mice at 60 days),[2],0/0
same,% ILS,[2],164%
same,MST (range),[2],29.0 (19-58) days
same,optimal dose,[2],1200.0 μg/kg per inj
same,adrenochrome formation,rat hepatic microsomes,4.36 ± 0.21 nmol min^-1 (mg of protein)^-1
same,adrenochrome formation in presence of SOD,rat hepatic microsomes,inhibited
same,percentage stimulation of adrenochrome formation over basal rate,rat hepatic microsomes,106%
"Cc1c2oc3c(C)ccc(C(=O)N[C@@H]4C(=O)N[C@H](C(C)C)C(=O)N5CCC[C@H]5C(=O)N(C)CC(=O)N(C)[C@@H](C(C)C)C(=O)O[C@@H]4C)c3nc-2c(C(=O)N[C@@H]2C(=O)N[C@H](C(C)C)C(=O)N3CCC[C@H]3C(=O)N(C)CC(=O)N(C)[C@@H](C(C)C)C(=O)O[C@@H]2C)c(N)c1=O [AMD, Actinomycin D] (I: T[dV]P[Sar][NMeV] / II: T[dV]P[Sar][NMeV]; ester I:1-I:C, II:1-II:C; linker I:N-II:N via Actinocin(9to1))",Bapp (equilibrium binding value),calf-thymus DNA,0.108
same,Kapp (equilibrium binding constant),calf-thymus DNA,2.3e+07 M⁻¹
same,Percent isolated: unconverted,"[3]; rat liver microsomes (M), 6 hr",100%
same,formation of metabolite or conjugate,[3]; tumor cell homogenate and rat liver microsomes,did not form any detectable metabolite or conjugate
same,in vitro (CCRF-CEM) ID50,[1],50 nM
same,surv (surviving mice/total mice at 60 days),[2],1/8
same,% ILS,[2],136%
same,MST (range),[2],26.0 (16-37) days
same,optimal dose,[2],300.0 μg/kg per inj
same,adrenochrome formation,rat hepatic microsomes,2.29 ± 0.33 nmol min^-1 (mg of protein)^-1
same,adrenochrome formation in presence of SOD,rat hepatic microsomes,inhibited
same,percentage stimulation of adrenochrome formation over basal rate,rat hepatic microsomes,8.5%
